According to PubChem BioAssay AID330 (DTP/NCI, 2004):
Values joined by “and” are separate entries in the source; they are usually repeats but may differ in a detail not shown here. Equal values may be shown once. Toxic doses and inconclusive results are not listed.

System: P388 leukemia ip, CD2F1 mice, survival T/C
Assay: NCI In Vivo Anticancer Drug Screen. Data for tumor model P388 Leukemia (intraperitoneal) in CD2F1 (CDF1) mice
Conditions: endpoint: median survival time, higher = longer survival
Summary of the method: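 Mice carrying the transplanted tumor received test compound or vehicle. Survival was recorded in each group, and the value is the treated-group measurement divided by that of the vehicle-treated control group.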

[1] = dose: 25.0 mg/kg/injection, schedule: Q01DX009 (ip), vehicle: saline with Tween-80
[2] = dose: 50.0 mg/kg/injection, schedule: Q01DX009 (ip), vehicle: saline with Tween-80
[3] = dose: 50.0 mg/kg/injection, schedule: Q01DX005 (ip), vehicle: Klucel (hydroxypropylcellulose) (HPC)
[4] = dose: 100.0 mg/kg/injection, schedule: Q01DX005 (ip), vehicle: Klucel (hydroxypropylcellulose) (HPC)
[5] = dose: 200.0 mg/kg/injection, schedule: Q01DX005 (ip), vehicle: Klucel (hydroxypropylcellulose) (HPC)
[6] = dose: 100.0 mg/kg/injection, schedule: Q04DX002 (ip), vehicle: saline with Tween-80
[7] = dose: 200.0 mg/kg/injection, schedule: Q04DX002 (ip), vehicle: saline with Tween-80
[8] = dose: 400.0 mg/kg/injection, schedule: Q04DX002 (ip), vehicle: saline with Tween-80
[9] = dose: 60.0 mg/kg/injection, schedule: Q01DX005 (ip), vehicle: saline with Tween-80
[10] = dose: 120.0 mg/kg/injection, schedule: Q01DX005 (ip), vehicle: saline with Tween-80
[11] = dose: 25.0 mg/kg/injection, schedule: Q01DX009 (ip), vehicle: other
[12] = dose: 50.0 mg/kg/injection, schedule: Q01DX009 (ip), vehicle: other
[13] = dose: 240.0 mg/kg/injection, schedule: Q01DX005 (ip), vehicle: saline with Tween-80
[14] = dose: 100.0 mg/kg/injection, schedule: Q01DX009 (ip), vehicle: saline with Tween-80
[15] = dose: 200.0 mg/kg/injection, schedule: Q01DX009 (ip), vehicle: saline with Tween-80
[16] = dose: 50.0 mg/kg/injection, schedule: Q01DX005 (ip), vehicle: saline with Tween-80
[17] = dose: 100.0 mg/kg/injection, schedule: Q01DX005 (ip), vehicle: saline with Tween-80
[18] = dose: 200.0 mg/kg/injection, schedule: Q01DX005 (ip), vehicle: saline with Tween-80
[19] = dose: 60.0 mg/kg/injection, schedule: Q01DX005 (ip), vehicle: saline
[20] = dose: 120.0 mg/kg/injection, schedule: Q01DX005 (ip), vehicle: saline

Compound: Cc1ccc(S(=O)(=O)N2CCCN(S(=O)(=O)c3ccc(C)cc3)CCSCCCSCC2)cc1
- T/C [1]: 98 % of control
- T/C [2]: 87 % of control

Compound: C=C(C)C1CC=C(C)/C(=N/NC(=O)c2cccnc2)C1 (stereo not given)
- T/C [3]: 116 % of control
- T/C [4]: 101 % of control
- T/C [5]: 109 % of control

Compound: O=C1S/C(=C2\C(=O)N(CN3CCCCC3)c3ccccc32)C(=O)N1CN1CCCCC1
- T/C (dose: 60.0 mg/kg/injection, schedule: Q01DX005 (ip), vehicle: Klucel (hydroxypropylcellulose) (HPC)): 99 % of control
- T/C (dose: 120.0 mg/kg/injection, schedule: Q01DX005 (ip), vehicle: Klucel (hydroxypropylcellulose) (HPC)): 96 % of control
- T/C (dose: 240.0 mg/kg/injection, schedule: Q01DX005 (ip), vehicle: Klucel (hydroxypropylcellulose) (HPC)): 92 % of control

Compound: CCCCCNCC(=O)ON1CCCC1C(=O)NC(Cc1ccccc1)C(=O)NC(CC(C)C)C(=O)O (stereo not given)
- T/C [6]: 104 % of control
- T/C [7]: 101 % of control
- T/C [8]: 101 % of control

Compound: Oc1cc(CN2CCOCC2)c(O)cc1CN1CCOCC1
- T/C (dose: 1.56 mg/kg/injection, schedule: Q01DX009 (ip), vehicle: saline with Tween-80): 100 % of control
- T/C (dose: 3.13 mg/kg/injection, schedule: Q01DX009 (ip), vehicle: saline with Tween-80): 119 % of control and 121 % of control
- T/C (dose: 6.25 mg/kg/injection, schedule: Q01DX009 (ip), vehicle: saline with Tween-80): 113 % of control
- T/C (dose: 12.5 mg/kg/injection, schedule: Q01DX009 (ip), vehicle: saline with Tween-80): 113 % of control
- T/C [1]: 117 % of control

Compound: Cc1cc(N=[N+]=[N-])c2ccccc2n1
- T/C [9]: 105 % of control
- T/C [10]: 94 % of control

Compound: Nc1[nH]cnc(=S)c1N
- T/C [6]: 106 % of control
- T/C [7]: 102 % of control
- T/C [8]: 106 % of control

Compound: O=C(/C=C/c1ccco1)C1C(=O)CCC1=O
- T/C (dose: 50.0 mg/kg/injection, schedule: Q01DX005 (ip), vehicle: Klucel + Tween-80): 98 % of control
- T/C (dose: 100.0 mg/kg/injection, schedule: Q01DX005 (ip), vehicle: Klucel + Tween-80): 104 % of control

Compound: COc1ccc(CCNc2ccc(NCCc3ccc(OC)c(OC)c3)c3c2C(=O)c2ccccc2C3=O)cc1OC
- T/C [11]: 88 % of control
- T/C [12]: 88 % of control
- T/C (dose: 200.0 mg/kg/injection, schedule: Q01DX009 (ip), vehicle: other): 101 % of control
- T/C (dose: 400.0 mg/kg/injection, schedule: Q01DX009 (ip), vehicle: other): 91 % of control

Compound: COC(=O)C(CSC(c1ccccc1)(c1ccccc1)c1ccccc1)NC(=O)CCNC(=O)OCc1ccccc1 (stereo not given)
- T/C (dose: 6.25 mg/kg/injection, schedule: Q01DX009 (ip), vehicle: other): 103 % of control
- T/C (dose: 12.5 mg/kg/injection, schedule: Q01DX009 (ip), vehicle: other): 97 % of control
- T/C [11]: 94 % of control
- T/C [12]: 88 % of control

Compound: COc1cc(C2=N/C(=C/c3cccs3)C(=O)O2)cc(OC)c1OC
- T/C (dose: 6.25 mg/kg/injection, schedule: Q01DX009 (ip), vehicle: Klucel (hydroxypropylcellulose) (HPC)): 98 % of control
- T/C (dose: 12.5 mg/kg/injection, schedule: Q01DX009 (ip), vehicle: Klucel (hydroxypropylcellulose) (HPC)): 108 % of control
- T/C (dose: 25.0 mg/kg/injection, schedule: Q01DX009 (ip), vehicle: Klucel (hydroxypropylcellulose) (HPC)): 106 % of control

Compound: CCCC(=O)C(CC)C(=O)CCC(=O)Nc1cccc([N+](=O)[O-])c1 (stereo not given)
- T/C [9]: 101 % of control
- T/C [10]: 104 % of control
- T/C [13]: 109 % of control

Compound: O=C(CC(O)(c1ccccc1)c1ccccc1)SCc1ccccc1
- T/C (dose: 100.0 mg/kg/injection, schedule: Q04DX003 (ip), vehicle: Klucel (hydroxypropylcellulose) (HPC)): 102 % of control
- T/C (dose: 200.0 mg/kg/injection, schedule: Q04DX003 (ip), vehicle: Klucel (hydroxypropylcellulose) (HPC)): 98 % of control
- T/C (dose: 400.0 mg/kg/injection, schedule: Q04DX003 (ip), vehicle: Klucel (hydroxypropylcellulose) (HPC)): 110 % of control

Compound: CCCN1C(C)=C(C#N)C2(C(=O)Nc3ccccc32)C(C#N)=C1C
- T/C [3]: 99 % of control
- T/C [4]: 102 % of control
- T/C [5]: 102 % of control

Compound: O=C(Nc1ccccc1)Nc1nccs1
- T/C [2]: 92 % of control
- T/C [14]: 96 % of control
- T/C [15]: 93 % of control

Compound: O=c1c2[nH]c3ccccc3sc=2c(=O)n1-c1cccc(C(F)(F)F)c1
- T/C [16]: 104 % of control
- T/C [17]: 100 % of control
- T/C [18]: 101 % of control

Compound: CCN(CC)CCN(C)C(C)C(=O)Nc1ccccc1Cl (stereo not given)
- T/C [19]: 105 % of control
- T/C [20]: 100 % of control

Compound: CC(C)=C1[C@@H]2C=C[C@@H]1[C@H]1C(=O)[C@@H]3O[C@]3(CO)C(=O)[C@H]12
- T/C [16]: 106 % of control
- T/C [17]: 101 % of control
- T/C [18]: 108 % of control

Compound: COCC1(C)CCCC2(C)C3=C(CCC(OC(C)=O)C3)CCC12 (stereo not given)
- T/C (dose: 100.0 mg/kg/injection, schedule: Q04DX003 (ip), vehicle: suspension in saline): 100 % of control
- T/C (dose: 200.0 mg/kg/injection, schedule: Q04DX003 (ip), vehicle: suspension in saline): 102 % of control
- T/C (dose: 400.0 mg/kg/injection, schedule: Q04DX003 (ip), vehicle: suspension in saline): 102 % of control

Compound: CSC1=NC(C)(C)N=C(Oc2cc(Cl)cc(Cl)c2)N1
- T/C [9]: 89 % of control
- T/C [10]: 94 % of control
- T/C [13]: 92 % of control

Compound: CCOC(=O)C1=C(C)/C(=C\c2[nH]c(C)c(C(=O)OCC)c2C)N=C1C
- T/C [9]: 103 % of control
- T/C [10]: 94 % of control
- T/C [13]: 96 % of control

Compound: CCOC1OCN(C(C)(C)C)CC1(C)C (stereo not given)
- T/C [1]: 104 % of control
- T/C [2]: 120 % of control

Compound: C/C(=N\O)c1ccccc1N=Nc1ccc(N(CCCl)CCCl)cc1C
- T/C (dose: 50.0 mg/kg/injection, schedule: Q01DX001 (ip), vehicle: Klucel (hydroxypropylcellulose) (HPC)): 100 % of control
- T/C (dose: 100.0 mg/kg/injection, schedule: Q01DX001 (ip), vehicle: Klucel (hydroxypropylcellulose) (HPC)): 98 % of control
- T/C (dose: 200.0 mg/kg/injection, schedule: Q01DX001 (ip), vehicle: Klucel (hydroxypropylcellulose) (HPC)): 104 % of control

Compound: CC1(C)OC2C(CO)OC(n3c(Br)nc4c(N)ncnc43)C2O1 (stereo not given)
- T/C [16]: 100 % of control
- T/C [17]: 103 % of control
- T/C [18]: 100 % of control

Compound: COc1cc2ccc3c(c2cc1OC)N(C)C(OC)c1cc2c(cc1-3)OCO2 (stereo not given)
- T/C (dose: 10.0 mg/kg/injection, schedule: Q01DX009 (ip), vehicle: Klucel (hydroxypropylcellulose) (HPC)): 153 % of control
- T/C (dose: 40.0 mg/kg/injection, schedule: Q01DX009 (ip), vehicle: Klucel (hydroxypropylcellulose) (HPC)): 173 % of control
- T/C (dose: 80.0 mg/kg/injection, schedule: Q01DX009 (ip), vehicle: Klucel (hydroxypropylcellulose) (HPC)): 110 % of control

Compound: c1cc2c3c(c1)CCC3CCC2 (stereo not given)
- T/C [2]: 112 % of control
- T/C [14]: 109 % of control and 117 % of control
- T/C [15]: 118 % of control

Compound: COc1cc(C2c3cc4c(cc3OC(C)(O)C2C(C)=O)OCO4)cc(OC)c1O (stereo not given)
- T/C [9]: 95 % of control
- T/C [10]: 97 % of control
- T/C [13]: 90 % of control

Compound: O=C1CC2(C(=O)N1CN1CCOCC1)c1ccccc1-c1ccccc12
- T/C (dose: 50.0 mg/kg/injection, schedule: Q04DX002 (ip), vehicle: Klucel (hydroxypropylcellulose) (HPC)): 109 % of control
- T/C (dose: 100.0 mg/kg/injection, schedule: Q04DX002 (ip), vehicle: Klucel (hydroxypropylcellulose) (HPC)): 99 % of control and 108 % of control
- T/C (dose: 200.0 mg/kg/injection, schedule: Q04DX002 (ip), vehicle: Klucel (hydroxypropylcellulose) (HPC)): 111 % of control

Compound: CC(SCc1ccccc1)C(N)C(=O)O (stereo not given)
- T/C [2]: 100 % of control
- T/C [14]: 103 % of control
- T/C [15]: 91 % of control

Compound: [N-]=[N+]=CC(=O)C1OC12C1CC3CC(C1)CC2C3 (stereo not given)
- T/C (dose: 25.0 mg/kg/injection, schedule: Q01DX005 (ip), vehicle: saline with Tween-80): 86 % of control
- T/C [16]: 105 % of control
- T/C [17]: 113 % of control
- T/C [18]: 113 % of control

Compound: CC(=O)CCC1C=CC(=O)O1 (stereo not given)
- T/C [19]: 112 % of control
- T/C [20]: 103 % of control
- T/C (dose: 240.0 mg/kg/injection, schedule: Q01DX005 (ip), vehicle: saline): 111 % of control

Compound: CN(C)CCOC(=O)Nc1cc(Cl)cc(Cl)c1
- T/C [9]: 103 % of control
- T/C [10]: 103 % of control
